Measurements published in US10738028B2, “Spiro three-membered ring, spiro five-membered ring peptide deformylase inhibitor and use thereof in antibacteria and anti-tumor” (priority 2016, dated 2020).

Assays:
Format in all cases: cell-based
[1] = system: Enterococcus faecalis (EFA); assay: MIC, two-fold agar dilution (CLSI), clinical isolates; settings: for Anti-bacterial activity (MIC), strain EFA 15-1: clinical isolate EFA 15-1; for Anti-bacterial activity (MIC), strain EFA 15-2: clinical isolate EFA 15-2; for Anti-bacterial activity (MIC), strain EFA 15-3: clinical isolate EFA 15-3; for Anti-bacterial activity (MIC), strain EFA 15-4: clinical isolate EFA 15-4; for Anti-bacterial activity (MIC), strain EFA 15-5: clinical isolate EFA 15-5; for Anti-bacterial activity (MIC), strain EFA 15-6: clinical isolate EFA 15-6; for Anti-bacterial activity (MIC), strain EFA 15-9: clinical isolate EFA 15-9
Outline: (§1)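 Susceptibility was tested using CLSI two-fold agar dilution against the strains examined.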

[2] = system: Enterococcus faecium (EFM); assay: as above; settings: for Anti-bacterial activity (MIC), strain EFM 15-1: clinical isolate EFM 15-1; for Anti-bacterial activity (MIC), strain EFM 15-2: clinical isolate EFM 15-2; for Anti-bacterial activity (MIC), strain EFM 15-3: clinical isolate EFM 15-3; for Anti-bacterial activity (MIC), strain EFM 15-4: clinical isolate EFM 15-4; for Anti-bacterial activity (MIC), strain EFM 15-5: clinical isolate EFM 15-5; for Anti-bacterial activity (MIC), strain EFM 15-6: clinical isolate EFM 15-6
Outline: as §1

[3] = system: Escherichia coli (including ESBLs, non-ESBLs); assay: as above; settings: for Anti-bacterial activity (MIC), strain ECO+ 15-1: clinical isolate ECO+ 15-1; for Anti-bacterial activity (MIC), strain ECO+ 15-2: clinical isolate ECO+ 15-2; for Anti-bacterial activity (MIC), strain ECO+ 15-3: clinical isolate ECO+ 15-3; for Anti-bacterial activity (MIC), strain ECO+ 15-4: clinical isolate ECO+ 15-4; for Anti-bacterial activity (MIC), strain ECO− 15-1: clinical isolate ECO− 15-1; for Anti-bacterial activity (MIC), strain ECO− 15-2: clinical isolate ECO− 15-2; for Anti-bacterial activity (MIC), strain ECO− 15-3: clinical isolate ECO− 15-3; for Anti-bacterial activity (MIC), strain ECO− 15-4: clinical isolate ECO− 15-4
Outline: as §1

[4] = system: Moraxella catarrhalis (BCA); assay: as above; settings: for Anti-bacterial activity (MIC), strain BCA 14-1: clinical isolate BCA 14-1; for Anti-bacterial activity (MIC), strain BCA 14-4: clinical isolate BCA 14-4; for Anti-bacterial activity (MIC), strain BCA 14-5: clinical isolate BCA 14-5; for Anti-bacterial activity (MIC), strain BCA 14-6: clinical isolate BCA 14-6; for Anti-bacterial activity (MIC), strain BCA 14-7: clinical isolate BCA 14-7; for Anti-bacterial activity (MIC), strain BCA 14-8: clinical isolate BCA 14-8; for Anti-bacterial activity (MIC), strain BCA 14-10: clinical isolate BCA 14-10
Outline: as §1

[5] = system: Streptococcus pneoumoniae (SPN); assay: as above; settings: for Anti-bacterial activity (MIC), strain SPN 16-2: clinical isolate SPN 16-2; for Anti-bacterial activity (MIC), strain SPN 16-4: clinical isolate SPN 16-4
Outline: as §1

[6] = system: methicillin-resistant Staphylococcus aureus (MRSA); assay: as above; settings: for Anti-bacterial activity (MIC), strain MRSA 15-1: clinical isolate MRSA 15-1; for Anti-bacterial activity (MIC), strain MRSA 15-2: clinical isolate MRSA 15-2; for Anti-bacterial activity (MIC), strain MRSA 15-3: clinical isolate MRSA 15-3; for Anti-bacterial activity (MIC), strain MRSA 15-4: clinical isolate MRSA 15-4
Outline: as §1

[7] = system: methicillin-resistant Staphylococcus epidermidis (MRSE); assay: as above; settings: for Anti-bacterial activity (MIC), strain MRSE 15-1: clinical isolate MRSE 15-1; for Anti-bacterial activity (MIC), strain MRSE 15-2: clinical isolate MRSE 15-2; for Anti-bacterial activity (MIC), strain MRSE 15-3: clinical isolate MRSE 15-3; for Anti-bacterial activity (MIC), strain MRSE 15-7: clinical isolate MRSE 15-7
Outline: as §1

[8] = system: methicillin-sensitive Staphylococcus aureus (MSSA); assay: as above; settings: for Anti-bacterial activity (MIC), strain MSSA 15-3: clinical isolate MSSA 15-3; for Anti-bacterial activity (MIC), strain MSSA 15-4: clinical isolate MSSA 15-4; for Anti-bacterial activity (MIC), strain MSSA 15-5: clinical isolate MSSA 15-5; for Anti-bacterial activity (MIC), strain MSSA 15-6: clinical isolate MSSA 15-6
Outline: as §1

[9] = system: methicillin-sensitive Staphylococcus epidermidis (MSSE); assay: as above; settings: for Anti-bacterial activity (MIC), strain MSSE 15-3: clinical isolate MSSE 15-3; for Anti-bacterial activity (MIC), strain MSSE 15-4: clinical isolate MSSE 15-4; for Anti-bacterial activity (MIC), strain MSSE 15-5: clinical isolate MSSE 15-5; for Anti-bacterial activity (MIC), strain MSSE 15-6: clinical isolate MSSE 15-6
Outline: as §1

[10] = system: HCT-116 colorectal cancer cell line; assay: CCK-8 proliferation inhibition; settings: Homo sapiens, HCT-116, 72 h, concentration of 30 μM; 72 hours; CCK-8; read-out: HCT116 inhibition rate/%
Outline: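 HCT-116 cells, seeded at 2000 cells/well in McCoy's 5A with 10% newborn bovine serum, were cultured overnight at 37° C., 5% CO2, then exposed to compound dilutions in medium for 72 hours. Viability was read with 1:10 diluted CCK-8; controls received 1‰ DMSO.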

CCCC[C@H](CC(=O)NO)C(=O)N1CC2(CC2)C[C@H]1C(=O)Nc1ncco1 [Example 53, (S)-5-((R)-2-(2-(hydroxyamino)-2-oxoethyl)hexanoyl)-N-(oxazol-2-yl)-5-azaspiro[2.4]heptane-6-carboxamide]
Anti-bacterial activity (MIC), strain EFA 15-1 [1]: > 32 µg/mL
Anti-bacterial activity (MIC), strain EFA 15-2 [1]: > 32 µg/mL
Anti-bacterial activity (MIC), strain EFA 15-3 [1]: > 32 µg/mL
Anti-bacterial activity (MIC), strain EFA 15-4 [1]: > 32 µg/mL
Anti-bacterial activity (MIC), strain EFA 15-5 [1]: > 32 µg/mL
Anti-bacterial activity (MIC), strain EFA 15-6 [1]: > 32 µg/mL
Anti-bacterial activity (MIC), strain EFA 15-9 [1]: > 32 µg/mL
Anti-bacterial activity (MIC), strain EFM 15-1 [2]: > 32 µg/mL
Anti-bacterial activity (MIC), strain EFM 15-2 [2]: > 32 µg/mL
Anti-bacterial activity (MIC), strain EFM 15-3 [2]: > 32 µg/mL
Anti-bacterial activity (MIC), strain EFM 15-4 [2]: > 32 µg/mL
Anti-bacterial activity (MIC), strain EFM 15-5 [2]: 32 µg/mL
Anti-bacterial activity (MIC), strain EFM 15-6 [2]: 32 µg/mL
Anti-bacterial activity (MIC), strain ECO+ 15-1 [3]: > 32 µg/mL
Anti-bacterial activity (MIC), strain ECO+ 15-2 [3]: > 32 µg/mL
Anti-bacterial activity (MIC), strain ECO+ 15-3 [3]: > 32 µg/mL
Anti-bacterial activity (MIC), strain ECO+ 15-4 [3]: > 32 µg/mL
Anti-bacterial activity (MIC), strain ECO− 15-1 [3]: > 32 µg/mL
Anti-bacterial activity (MIC), strain ECO− 15-2 [3]: > 32 µg/mL
Anti-bacterial activity (MIC), strain ECO− 15-3 [3]: > 32 µg/mL
Anti-bacterial activity (MIC), strain ECO− 15-4 [3]: > 32 µg/mL
Anti-bacterial activity (MIC), strain BCA 14-1 [4]: > 32 µg/mL
Anti-bacterial activity (MIC), strain BCA 14-4 [4]: > 32 µg/mL
Anti-bacterial activity (MIC), strain BCA 14-5 [4]: > 32 µg/mL
Anti-bacterial activity (MIC), strain BCA 14-6 [4]: > 32 µg/mL
Anti-bacterial activity (MIC), strain BCA 14-7 [4]: > 32 µg/mL
Anti-bacterial activity (MIC), strain BCA 14-8 [4]: > 32 µg/mL
Anti-bacterial activity (MIC), strain BCA 14-10 [4]: > 32 µg/mL
Anti-bacterial activity (MIC), strain SPN 16-2 [5]: 32 µg/mL
Anti-bacterial activity (MIC), strain SPN 16-4 [5]: 32 µg/mL
Anti-bacterial activity (MIC), strain MRSA 15-1 [6]: 16 µg/mL
Anti-bacterial activity (MIC), strain MRSA 15-2 [6]: > 32 µg/mL
Anti-bacterial activity (MIC), strain MRSA 15-3 [6]: 16 µg/mL
Anti-bacterial activity (MIC), strain MRSA 15-4 [6]: > 32 µg/mL
Anti-bacterial activity (MIC), strain MRSE 15-1 [7]: > 32 µg/mL
Anti-bacterial activity (MIC), strain MRSE 15-2 [7]: > 32 µg/mL
Anti-bacterial activity (MIC), strain MRSE 15-3 [7]: > 32 µg/mL
Anti-bacterial activity (MIC), strain MRSE 15-7 [7]: > 32 µg/mL
Anti-bacterial activity (MIC), strain MSSA 15-3 [8]: > 32 µg/mL
Anti-bacterial activity (MIC), strain MSSA 15-4 [8]: > 32 µg/mL
Anti-bacterial activity (MIC), strain MSSA 15-5 [8]: > 32 µg/mL
Anti-bacterial activity (MIC), strain MSSA 15-6 [8]: > 32 µg/mL
Anti-bacterial activity (MIC), strain MSSE 15-3 [9]: > 32 µg/mL
Anti-bacterial activity (MIC), strain MSSE 15-4 [9]: > 32 µg/mL
Anti-bacterial activity (MIC), strain MSSE 15-5 [9]: > 32 µg/mL
Anti-bacterial activity (MIC), strain MSSE 15-6 [9]: > 32 µg/mL
inhibition at 30 µM [10]: -18%

CCCC[C@H](CC(=O)NO)C(=O)N1CC2(CC2)C[C@H]1C(=O)Nc1ccncn1 [Example 45]
Anti-bacterial activity (MIC), strain EFA 15-1 [1]: > 32 µg/mL
Anti-bacterial activity (MIC), strain EFA 15-2 [1]: > 32 µg/mL
Anti-bacterial activity (MIC), strain EFA 15-3 [1]: > 32 µg/mL
Anti-bacterial activity (MIC), strain EFA 15-4 [1]: > 32 µg/mL
Anti-bacterial activity (MIC), strain EFA 15-5 [1]: > 32 µg/mL
Anti-bacterial activity (MIC), strain EFA 15-6 [1]: > 32 µg/mL
Anti-bacterial activity (MIC), strain EFA 15-9 [1]: 16 µg/mL
Anti-bacterial activity (MIC), strain EFM 15-1 [2]: > 32 µg/mL
Anti-bacterial activity (MIC), strain EFM 15-2 [2]: > 32 µg/mL
Anti-bacterial activity (MIC), strain EFM 15-3 [2]: > 32 µg/mL
Anti-bacterial activity (MIC), strain EFM 15-4 [2]: > 32 µg/mL
Anti-bacterial activity (MIC), strain EFM 15-5 [2]: 0.5 µg/mL
Anti-bacterial activity (MIC), strain EFM 15-6 [2]: 0.5 µg/mL
Anti-bacterial activity (MIC), strain ECO+ 15-1 [3]: 32 µg/mL
Anti-bacterial activity (MIC), strain ECO+ 15-2 [3]: > 32 µg/mL
Anti-bacterial activity (MIC), strain ECO+ 15-3 [3]: > 32 µg/mL
Anti-bacterial activity (MIC), strain ECO+ 15-4 [3]: 1 µg/mL
Anti-bacterial activity (MIC), strain ECO− 15-1 [3]: 32 µg/mL
Anti-bacterial activity (MIC), strain ECO− 15-2 [3]: > 32 µg/mL
Anti-bacterial activity (MIC), strain ECO− 15-3 [3]: > 32 µg/mL
Anti-bacterial activity (MIC), strain ECO− 15-4 [3]: > 32 µg/mL
Anti-bacterial activity (MIC), strain BCA 14-1 [4]: 1 µg/mL
Anti-bacterial activity (MIC), strain BCA 14-4 [4]: 1 µg/mL
Anti-bacterial activity (MIC), strain BCA 14-5 [4]: 0.5 µg/mL
Anti-bacterial activity (MIC), strain BCA 14-6 [4]: 0.5 µg/mL
Anti-bacterial activity (MIC), strain BCA 14-7 [4]: 1 µg/mL
Anti-bacterial activity (MIC), strain BCA 14-8 [4]: 1 µg/mL
Anti-bacterial activity (MIC), strain BCA 14-10 [4]: 1 µg/mL
Anti-bacterial activity (MIC), strain SPN 16-2 [5]: 0.5 µg/mL
Anti-bacterial activity (MIC), strain SPN 16-4 [5]: 0.5 µg/mL
Anti-bacterial activity (MIC), strain MRSA 15-1 [6]: 0.5 µg/mL
Anti-bacterial activity (MIC), strain MRSA 15-2 [6]: 1 µg/mL
Anti-bacterial activity (MIC), strain MRSA 15-3 [6]: 1 µg/mL
Anti-bacterial activity (MIC), strain MRSA 15-4 [6]: 1 µg/mL
Anti-bacterial activity (MIC), strain MRSE 15-1 [7]: 1 µg/mL
Anti-bacterial activity (MIC), strain MRSE 15-2 [7]: 1 µg/mL
Anti-bacterial activity (MIC), strain MRSE 15-3 [7]: 1 µg/mL
Anti-bacterial activity (MIC), strain MRSE 15-7 [7]: 1 µg/mL
Anti-bacterial activity (MIC), strain MSSA 15-3 [8]: 0.5 µg/mL
Anti-bacterial activity (MIC), strain MSSA 15-4 [8]: 1 µg/mL
Anti-bacterial activity (MIC), strain MSSA 15-5 [8]: 1 µg/mL
Anti-bacterial activity (MIC), strain MSSA 15-6 [8]: > 32 µg/mL
Anti-bacterial activity (MIC), strain MSSE 15-3 [9]: 1 µg/mL
Anti-bacterial activity (MIC), strain MSSE 15-4 [9]: 1 µg/mL
Anti-bacterial activity (MIC), strain MSSE 15-5 [9]: 1 µg/mL
Anti-bacterial activity (MIC), strain MSSE 15-6 [9]: 1 µg/mL
inhibition at 30 µM [10]: 25%
